Columns and labels:
[1] = system: U2OS, human osteocarcinoma; test: Growth inhibition by MTS method, U2OS; format: cell-based; settings: 48 hours with compound, read-out: GI50 against U2OS
Experimental: (§1) Growth inhibition tests were carried out by MTS method. Approximately 72 hours before the viability assay, cells were seeded into 96-well plates at 5-10×10^3 cells/well (according to the growth rate of individual cell lines used). 24 hours later, the tested compounds at different concentrations were added, and the cells were cultured for 48 hours, then added 20 μl/well of CellTiter 96 AQueous One Solution Reagent containing tetrazolium compound (Promega) into each well. MTS was subsequently added to the culture medium. After incubation of the plates for 2 hours at about 37° C., the absorbance at 490 nm was recorded by a 96-well plate reader. Cell viability was calculated by Atreatment/Acontrol×100% (A represents the absorbance recorded at 490 nm). […] All of the compounds were dissolved in DMSO and were added to the culture at a 1:1000 dilution to give a final DMSO concentration of ≦0.1%. All samples were assayed in duplicate, and each experiment was repeated at least three times.

[2] = system: HeLa, human cervical carcinoma; test: Growth inhibition by MTS method, HeLa; format: cell-based; settings: 48 hours with compound, read-out: GI50 against HeLa
Experimental: as §1

[3] = system: DU-145, human prostate cancer; test: Growth inhibition by MTS method, DU-145; format: cell-based; settings: 48 hours with compound, read-out: GI50 against DU-145
Experimental: as §1

[4] = system: SMMC-7721, human hepatoma; test: Growth inhibition by MTS method, SMMC-7721; format: cell-based; settings: SMMC-721, 48 hours with compound, read-out: GI50 against SMMC-721
Experimental: as §1

[5] = system: HepG2, human hepatoblastoma; test: Growth inhibition by MTS method, HepG2; format: cell-based; settings: 48 hours with compound, read-out: GI50 against HepG2
Experimental: as §1

[6] = system: 293, human embryonic kidney; test: Growth inhibition by MTS method, 293; format: cell-based; settings: 48 hours with compound, read-out: GI50 against 293
Experimental: as §1

[7] = system: MCF-7, human breast adenocarcinoma; test: Growth inhibition by MTS method, MCF-7; format: cell-based; settings: MCF7, 48 hours with compound, read-out: GI50 against MCF-7
Experimental: as §1

[8] = system: MDA-MB-231, human breast adenocarcinoma; test: Growth inhibition by MTS method, MDA-MB-231; format: cell-based; settings: 48 hours with compound, read-out: GI50 against 231
Experimental: as §1

H292, human lung cancer = test: Growth inhibition by MTS method, H292; format: cell-based; settings: NCI-H292, 48 hours with compound, read-out: GI50 against H292
Experimental: as §1

[9] = system: LNCaP, human prostate cancer; test: Growth inhibition by MTS method, LNCaP; format: cell-based; settings: 48 hours with compound, read-out: GI50 against LNCaP
Experimental: as §1

[10] = system: SK-N-SH, human neuroblastoma; test: Growth inhibition by MTS method, SK-N-SH; format: cell-based; settings: 48 hours with compound, read-out: GI50 against SK-N-SH
Experimental: as §1

[11] = system: PANC-1, human pancreatic ductal carcinoma; test: Growth inhibition by MTS method, PANC-1; format: cell-based; settings: 48 hours with compound, read-out: GI50 against PANC-1
Experimental: as §1

[12] = system: SK-OV-3, human ovary adenocarcinoma; test: Growth inhibition by MTS method, SK-OV-3; format: cell-based; settings: 48 hours with compound, read-out: GI50 against SK-OV-3
Experimental: as §1

[13] = system: SGC-7901, human gastric adenocarcinoma; test: Growth inhibition by MTS method, SGC-7901; format: cell-based; settings: 48 hours with compound, read-out: GI50 against SGC-7901
Experimental: as §1

[14] = system: Raji, human Burkitts Lymphoma; test: Growth inhibition by MTS method, Raji; format: cell-based; settings: 48 hours with compound, read-out: GI50 against Raji
Experimental: as §1

[15] = system: HL-60, human myloid leukemia; test: Growth inhibition by MTS method, HL-60; format: cell-based; settings: 48 hours with compound, read-out: GI50 against HL-60
Experimental: as §1

28SC, human macrophage = test: Growth inhibition by MTS method, 28SC; format: cell-based; settings: 48 hours with compound, read-out: GI50 against 28SC
Experimental: as §1

[16] = system: Jurkat, human T cell leukemia; test: Growth inhibition by MTS method, Jurkat; format: cell-based; settings: 48 hours with compound, read-out: GI50 against Jurkat
Experimental: as §1

[17] = system: HDAC (extract from HeLa cells containing HDAC activity); test: HDAC colorimetric activity assay kit (BIOMOL), HeLa cell extract; format: biochemical, human
Experimental: Briefly, the tested compounds at different concentrations were added to 96-well plates, then mixed with extract from HeLa cells containing HDAC activity provided by the manufacturer. HDAC reactions were initiated by adding substrate. 10 minutes later, the reactions were stopped by addition of Color De Lys Developer. Microplates were read in a plate reader at 405 nm. Inhibition of HDAC activity was calculated following the instructions.

GI50 [1] [µM]	GI50 [2] [µM]	GI50 [3] [µM]	GI50 [4] [µM]	GI50 [5] [µM]	GI50 [7] [µM]	GI50 [8] [µM]	GI50 (H292, human lung cancer) [µM]	GI50 [9] [µM]	GI50 [10] [µM]	GI50 [11] [µM]	GI50 [12] [µM]	GI50 [13] [µM]	GI50 [14] [µM]	GI50 [15] [µM]	GI50 [16] [µM]	SMILES	GI50 [6] [µM]	GI50 (28SC, human macrophage) [µM]	also measured
2	40	25	16	4	5	7.9	50	4	50	6.3	50	50	4	0.4	1.5	Nc1cc(F)ccc1NC(=O)c1ccc(CNC(=O)/C=C/c2cccnc2)cc1 [CS02100055, N-(2-amino-4-fluorophenyl)-4-[N-(Pyridin-3-ylacryloyl)aminomethyl]benzamide]	50	5.8	–
2.5	50	50	50	3.2	5	7.9	50	10	50	5	50	50	2	0.5	1	Nc1ccccc1NC(=O)c1ccc(CNc2ccc(F)cc2)cc1 [CS02100019, N-(2-aminophenyl)-4-[N-(4-fluorophenyl)aminomethyl]benzamide]	25	2	IC50 ([17]; HDAC activity, HeLa extract): > 50 µM; % of inhibition of HDAC activity ([17]; concentration 1 μM): 11.3%; % of inhibition of HDAC activity ([17]; concentration 5 μM): 24.9%; % of inhibition of HDAC activity ([17]; concentration 10 μM): 28.4%; % of inhibition of HDAC activity ([17]; concentration 50 μM): 29.8%

SMILES	GI50 [1] [µM]	GI50 [2] [µM]	GI50 [3] [µM]	GI50 [4] [µM]	GI50 [5] [µM]	GI50 [7] [µM]	GI50 [8] [µM]	GI50 (H292, human lung cancer) [µM]	GI50 [9] [µM]	GI50 [10] [µM]	GI50 [11] [µM]	GI50 [12] [µM]	GI50 [13] [µM]	GI50 [14] [µM]	GI50 [15] [µM]	GI50 [16] [µM]	GI50 [6] [µM]	GI50 (28SC, human macrophage) [µM]	also measured
Nc1ccccc1NC(=O)c1ccc(CNC(=O)OCc2cccnc2)cc1 [MS-275, N-(2-aminophenyl)-4-[N-(pyridin-3-ylmethoxycarbonyl)aminomethyl]benzamide, reference compound]	1	25	13	20	3.2	6.3	5	16	2.5	50	5	50	50	6.3	0.32	1.6	16	4	–

Source: patent publication US7244751B2, “Histone deacetylase inhibitors of novel benzamide derivatives with potent differentiation and anti-proliferation activity” (Shenzhen Chipscreen Biosciences Ltd., priority 2003, dated 2007)
